What follows are molecules tested against SMYD2 (Homo sapiens (Human), UniProt Q9NRG4) (assay: SMYD2 biochemical assay (SMYD2 enzyme assay on peptide substrate, 3H-SAM Flashplate)). Settings: read-out: SMYD2 Biochem IC50; IC50 values are an average of n = 1 to n = 50.
Chain of SMYD2 (Q9NRG4 whole entry): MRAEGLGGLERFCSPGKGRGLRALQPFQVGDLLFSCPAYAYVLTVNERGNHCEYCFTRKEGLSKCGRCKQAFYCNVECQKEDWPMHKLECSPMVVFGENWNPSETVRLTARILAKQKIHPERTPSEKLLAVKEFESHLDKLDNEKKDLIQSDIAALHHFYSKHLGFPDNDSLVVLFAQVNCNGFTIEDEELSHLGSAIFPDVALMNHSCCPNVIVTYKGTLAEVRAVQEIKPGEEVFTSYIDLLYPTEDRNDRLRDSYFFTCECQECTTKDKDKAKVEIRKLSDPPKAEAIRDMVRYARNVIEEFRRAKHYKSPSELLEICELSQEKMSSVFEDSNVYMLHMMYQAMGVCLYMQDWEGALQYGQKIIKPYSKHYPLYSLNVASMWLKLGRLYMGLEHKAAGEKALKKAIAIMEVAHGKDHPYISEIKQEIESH
Description: S-adenosylmethionine (SAM), S-adenosylhomocysteine (SAH), bicine, Tween20, dimethylsulfoxide (DMSO), bovine skin gelatin (BSG), and Tris(2-carboxyethyl)phosphine hydrochloride (TCEP) were purchased from Sigma-Aldrich at the highest level of purity possible. ^3H-SAM was purchase from American Radiolabeled Chemicals with a specific activity of 80 Ci/mmol. 384-well streptavidin Flashplates were purchased from PerkinElmer.
The sequence was [sequence](K-Biot)-amide.
Production of Recombinant SMYD2 Enzymes for Biochemical Enzyme Activity Assays
Full length SMYD2 (NP_064582.2) was cloned into a pFastbac-Htb-lic vector with an N-terminal His6 tag and FLAG tag, preceded by a TEV protease cleavage site. The protein was expressed in Sf9 insect cells. Cells were resuspended in lysis buffer (25 mM HEPES-NaOH, pH 7.5, 200 mM NaCl, 5% glycerol, and 5 mM (3-ME) and lysed by sonication. The protein was purified by Ni-NTA (Qiagen), followed by TEV cleavage to remove the His6 tag, subtractive Ni-NTA (Qiagen), and gel filtration chromatography using an S200 column (GE Healthcare). Purified protein was stored in 20 mM Tris-HCl, pH 8.0, 100 mM NaCl, and 1 mM TCEP.
General Procedure for SMYD2 Enzyme Assays on Peptide Substrates
The assays were all performed in a buffer consisting of 20 mM Bicine (pH=7.6), 1 mM TCEP, 0.005% Bovine Skin Gelatin, and 0.002% Tween20, prepared on the day of use. […] DMSO (1 ul) was added to Columns 11, 12, 23, 24, rows A-H for the maximum signal control and 1 ul of SAH, a known product and inhibitor of SMYD2, was added to columns 11, 12, 23, 24, rows I-P for the minimum signal control. A cocktail (40 ul) containing the SMYD2 enzyme was added by Multidrop Combi (Thermo-Fisher). The compounds were allowed to incubate with SMYD2 for 30 min at room temperature, then a cocktail (10 ul) containing ^3H-SAM and peptide was added to initiate the reaction (final volume=51 ul). […] The assays were stopped by the addition of non-radioactive SAM (10 ul) to a final concentration of 600 uM, which dilutes the ^3H-SAM to a level where its incorporation into the peptide substrate is no longer detectable. 50 ul of the reaction in the 384-well polypropylene plate was then transferred to a 384-well Flashplate and the biotinylated peptides were allowed to bind to the streptavidin surface for at least 1 hour before being washed three times with 0.1% Tween20 in a Biotek ELx405 plate washer. The plates were then read in a PerkinElmer TopCount plate reader to measure the quantity of ^3H-labeled peptide bound to the Flashplate surface, measured as disintegrations per minute (dpm) or alternatively, referred to as counts per minute (cpm).
Where dpm=disintegrations per minute, cmpd=signal in assay well, and min and max are the respective minimum and maximum signal controls.
Where top and bottom are the normally allowed to float, but may be fixed at 100 or 0 respectively in a 3-parameter fit. The Hill Coefficient normally allowed to float but may also be fixed at 1 in a 3-parameter fit. I is the compound concentration.

Row | Structure (SMILES) | IC50 [nM]
1 | O=C(NC1CN(Cc2cnn(Cc3cccc(Cl)c3)c2)C1)c1cn(C2CC2)nn1 [compound 987, N-(1-((1-(3-chlorobenzyl)-1H-pyrazol-4-yl)methyl)azetidin-3-yl)-1-cyclopropyl-1H-1,2,3-triazole-4-carboxamide] | 24
2 | O=C(NC1CN(Cc2ccc(OCc3nncs3)cc2)C1)c1cn(C2CC2)nn1 [compound 988, N-(1-(4-((1,3,4-thiadiazol-2-yl)methoxy)benzyl)azetidin-3-yl)-1-cyclopropyl-1H-1,2,3-triazole-4-carboxamide] | 1900
3 | CC(c1cc(Cl)ccc1Oc1ccc(F)cc1)N1CC(NC(=O)c2cn(C3CC3)nn2)C1 (centres unmarked) [compound 989, N-(1-(1-(5-chloro-2-(4-fluorophenoxy)phenyl)ethyl)azetidin-3-yl)-1-cyclopropyl-1H-1,2,3-triazole-4-carboxamide] | > 50000
4 | O=C(NC1CN(Cc2cnn(Cc3nccs3)c2)C1)c1cn(C2CC2)nn1 [compound 991, 1-cyclopropyl-N-(1-((1-(thiazol-2-ylmethyl)-1H-pyrazol-4-yl)methyl)azetidin-3-yl)-1H-1,2,3-triazole-4-carboxamide] | 760
5 | O=C(NC1CN(Cc2ccc(OCc3ccccn3)cc2)C1)c1cn(C2CC2)nn1 [compound 992, 1-cyclopropyl-N-(1-(4-(pyridin-2-ylmethoxy)benzyl)azetidin-3-yl)-1H-1,2,3-triazole-4-carboxamide] | 2700
6 | Cc1ccc(Cn2cc(CN3CC(NC(=O)c4cn(C5CC5)nn4)C3)cn2)cc1 [compound 993, 1-cyclopropyl-N-(1-((1-(4-methylbenzyl)-1H-pyrazol-4-yl)methyl)azetidin-3-yl)-1H-1,2,3-triazole-4-carboxamide] | 16
7 | CC(c1ccc(=O)[nH]c1)N1CC(NC(=O)c2cn(C3CC3)nn2)C1 (centres unmarked) [compound 994, 1-cyclopropyl-N-(1-(1-(6-oxo-1,6-dihydropyridin-3-yl)ethyl)azetidin-3-yl)-1H-1,2,3-triazole-4-carboxamide] | 5400
8 | COc1ccccc1Cn1cc(CN2CC(NC(=O)c3cn(C4CC4)nn3)C2)cn1 [compound 995, 1-cyclopropyl-N-(1-((1-(2-methoxybenzyl)-1H-pyrazol-4-yl)methyl)azetidin-3-yl)-1H-1,2,3-triazole-4-carboxamide] | 1300
9 | O=C(NC1CN(Cc2ccc(OCc3cscn3)cc2)C1)c1cn(C2CC2)nn1 [compound 999, 1-cyclopropyl-N-(1-(4-(thiazol-4-ylmethoxy)benzyl)azetidin-3-yl)-1H-1,2,3-triazole-4-carboxamide] | 1100
10 | CC(NC(=O)c1cn(C2CC2)nn1)C1CCCCN1 (centres unmarked) [compound 1000, 1-cyclopropyl-N-(1-(piperidin-2-yl)ethyl)-1H-1,2,3-triazole-4-carboxamide] | > 50000
11 | O=C(NC1CN(Cc2cnn(CC3CCC3)c2)C1)c1cn(C2CC2)nn1 [compound 1001, N-(1-((1-(cyclobutylmethyl)-1H-pyrazol-4-yl)methyl)azetidin-3-yl)-1-cyclopropyl-1H-1,2,3-triazole-4-carboxamide] | 1400
12 | COc1ccc(C(C)N2CC(NC(=O)c3cn(C4CC4)nn3)C2)c(Cl)c1 (centres unmarked) [compound 1002, N-(1-(1-(2-chloro-4-methoxyphenyl)ethyl)azetidin-3-yl)-1-cyclopropyl-1H-1,2,3-triazole-4-carboxamide] | 88
13 | CC(NC(=O)c1cc(C2CC2)cnn1)C1CCCCN1 (centres unmarked) [compound 1003, 5-cyclopropyl-N-(1-(piperidin-2-yl)ethyl)pyridazine-3-carboxamide] | 19000
14 | COc1cccc(C(C)N2CC(NC(=O)c3cc(C4CC4)ccn3)C2)c1OC (centres unmarked) [compound 1005, 4-cyclopropyl-N-(1-(1-(2,3-dimethoxyphenyl)ethyl)azetidin-3-yl)picolinamide] | 130
15 | O=C(NC1CN(Cc2cnn(CC3CC3)c2)C1)c1cn(C2CC2)nn1 [compound 1006, 1-cyclopropyl-N-(1-((1-(cyclopropylmethyl)-1H-pyrazol-4-yl)methyl)azetidin-3-yl)-1H-1,2,3-triazole-4-carboxamide] | 1700
16 | O=C(NC1CN(Cc2cnn(Cc3ccccc3)c2)C1)c1nnc(C2CC2)s1 [compound 1007, N-(1-((1-benzyl-1H-pyrazol-4-yl)methyl)azetidin-3-yl)-5-cyclopropyl-1,3,4-thiadiazole-2-carboxamide] | 72
17 | CC(c1cccc(OCCN)c1Cl)N1CC(NC(=O)c2cn(C3CC3)nn2)C1 (centres unmarked) [compound 1009, N-(1-(1-(3-(2-aminoethoxy)-2-chlorophenyl)ethyl)azetidin-3-yl)-1-cyclopropyl-1H-1,2,3-triazole-4-carboxamide] | 5700
18 | CC(=O)Nc1ccc(COc2ccc(C(C)N3CC(NC(=O)c4cn(C5CC5)nn4)C3)cc2)cc1 (centres unmarked) [compound 1020, N-(1-(1-(4-((4-acetamidobenzyl)oxy)phenyl)ethyl)azetidin-3-yl)-1-cyclopropyl-1H-1,2,3-triazole-4-carboxamide] | 950
19 | O=C(NC1CN(Cc2cnn(Cc3ccccc3)c2)C1)c1nnc(C2CC2)o1 [compound 1021, N-(1-((1-benzyl-1H-pyrazol-4-yl)methyl)azetidin-3-yl)-5-cyclopropyl-1,3,4-oxadiazole-2-carboxamide] | 65
20 | O=C(NC1CN(Cc2cnn(Cc3ccccc3)c2)C1)c1cn(C2CC2)cn1 [compound 1022, N-(1-((1-benzyl-1H-pyrazol-4-yl)methyl)azetidin-3-yl)-1-cyclopropyl-1H-imidazole-4-carboxamide] | 73
21 | CN1[C@@H]2CC[C@H]1C[C@H](NC(=O)c1cc(C3CC3)cnn1)C2 [compound 1023, 5-cyclopropyl-N-((1R,3s,5S)-8-methyl-8-azabicyclo[3.2.1]octan-3-yl)pyridazine-3-carboxamide] | 6300
22 | CN1[C@@H]2CC[C@H]1C[C@@H](NC(=O)c1cc(C3CC3)cnn1)C2 [compound 1024, 5-cyclopropyl-N-((1R,3r,5S)-8-methyl-8-azabicyclo[3.2.1]octan-3-yl)pyridazine-3-carboxamide] | > 50000
23 | Cn1cc(COc2ccc(CN3CC(NC(=O)c4cn(C5CC5)nn4)C3)cc2)cn1 [compound 1025, 1-cyclopropyl-N-(1-(4-((1-methyl-1H-pyrazol-4-yl)methoxy)benzyl)azetidin-3-yl)-1H-1,2,3-triazole-4-carboxamide] | 1200

The molecules below were run against T1, SMYD3 (Homo sapiens (Human), UniProt Q9H7B4) (assay: SMYD3 biochemical assay (SMYD3 enzyme assay on MEKK2 protein substrate, 3H-SAM scintillation proximity assay)). Settings: read-out: SMYD3 Biochem IC50.
Procedure, shortened: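 Detection used scintillation proximity beads to capture ³H-methylated GST-MEKK2 after quench with 100 uM final cold SAM. The reaction was started by SAM/MEKK2 addition after a 30 min RT compound–enzyme preincubation. Enzyme was tag-free full-length human SMYD3 from E. coli, in buffer of 25 mM Tris-Cl pH 8.0, 1 mM TCEP, 0.005% BSG, 0.005% Tween 20.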

T1 sequence (Q9H7B4 whole entry): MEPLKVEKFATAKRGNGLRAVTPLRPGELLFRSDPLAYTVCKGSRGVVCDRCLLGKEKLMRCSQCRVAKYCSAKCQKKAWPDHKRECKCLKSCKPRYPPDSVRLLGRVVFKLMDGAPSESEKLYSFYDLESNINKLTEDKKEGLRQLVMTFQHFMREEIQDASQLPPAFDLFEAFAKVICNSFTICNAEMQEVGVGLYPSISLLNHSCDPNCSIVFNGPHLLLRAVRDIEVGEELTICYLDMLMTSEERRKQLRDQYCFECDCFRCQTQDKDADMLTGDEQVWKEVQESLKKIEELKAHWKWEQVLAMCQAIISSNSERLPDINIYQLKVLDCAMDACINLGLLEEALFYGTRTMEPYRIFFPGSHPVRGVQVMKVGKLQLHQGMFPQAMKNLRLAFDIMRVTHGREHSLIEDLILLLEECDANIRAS

Row | Structure (SMILES) | IC50 [nM]
24 | CC(NC(=O)c1cc2c(cc1Cl)NC(=O)C2)C1CCN(C(=O)[C@H](C)N)CC1 (stereo partly drawn) [Cpd. No. 490, N-(1-(1-((S)-2-aminopropanoyl)piperidin-4-yl)ethyl)-6-chloro-2-oxoindoline-5-carboxamide] | 430

Each molecule was assayed against T1, SMYD3 (assay: SMYD3 cell assay (Trimethyl-MEKK2 In-Cell Western in 293T/17 cells transfected with MEKK2-flag and SMYD3)). Settings: Table 3A; average of n = 1 to n = 50; read-out: SMYD3 cell IC50.
Assay type: cell-based
Description: Trimethyl-MEKK2-in-Cell Western Assay
MEM/Glutamax medium, Optimem Reduced Serum medium, penicillin-streptomycin, 0.05% trypsin and 1×D-PBS were purchased from Life Technologies, Grand Island, N.Y., USA. PBS-10× was purchased from Ambion, Life Technologies, Grand Island, N.Y., USA. PBS with Tween 20 (PBST (10×)) was purchased from KPL, Gaithersburg, Md., USA. Tet System FBS-approved FBS US Source was purchased from Clontech, Mountain View, Calif., USA. Odyssey blocking buffer, 800CW goat anti-rabbit IgG (H+L) antibody, 680CW Goat anti-mouse IgG (H+L) and Licor Odyssey infrared scanner were purchased from Licor Biosciences, Lincoln, Nebr., USA. Tri-methyl-Lysine [A260]-MEKK2 antibody, MEKK2 and SMYD3 plasmids were made at Epizyme. Anti-flag monoclonal mouse antibody was purchased from Sigma, St. Louis, Mo., USA. Methanol was purchased from VWR, Franklin, Mass., USA. 10% Tween 20 was purchased from KPL, Inc., Gaithersburg, Md., USA. Fugene was purchased from Promega, Madison, Wis., USA. The Biotek ELx405 was purchased from BioTek, Winooski, Vt., USA. The multidrop combi was purchased from Thermo Scientific, Waltham, Mass., USA.
Cell Treatment, in Cell Western (ICW) for Detection of Trimethyl-Lysine-MEKK2 and MEKK2.
Plasmids were prepared for delivery to cells by first mixing 1350 μL Opti-MEM with Fugene (81 μL) in a sterile Eppendorf and incubated for five minutes at room temperature (RT). […] Entire volume of Opti-MEM/Fugene mixture was then added to a microfuge tube containing DNA plasmid, mixed and then incubated ×15 minutes at RT. […] Medium was then removed, and cells were washed once with PBS in the flask. Trypsin 0.05% (3 mL) was added and cells incubated for three minutes. Room temperature MEM+10% Tet system FBS was added and cells were mixed gently, and counted using the Vi-cell. Cells were seeded at 100,000 cells/mL in 50 μL MEM/10% Tet FBS/Pen/Strep to a 384 well black/clear poly-D-lysine coated plate containing test agent diluted in DMSO. The final top concentration of test compound was 40 μM. […] Plates were incubated ×30 minutes at RT in low-airflow area, followed by incubation at 37° C. under 5% CO2 for 24 hours. Medium was aspirated from all wells of assay plates prior to fixation and permeabilization with ice cold (−20° C.) methanol (90 μL/well) for ten minutes. Plates were rinsed with PBS three times on BioTek ELx405. PBS was removed with a final aspiration, and Odyssey blocking buffer (50 μL/well) was added to each well and incubated for one hour at RT. Primary antibody solution was prepared (anti-trimethyl-MEKK2 at 1:600 dilution plus mouse anti-flag antibody at 1:10,000 dilution in diluent (Odyssey Blocking buffer+0.1% Tween 20)) and 20 μL per well was dispensed using the Multidrop Combi. Assay plates were then sealed with foil, and incubated overnight at 4° C. Plates were washed five times with PBS-Tween (1×) on Biotek ELx405 and blotted on paper towel to remove excess reagent.
First, the ratio for each well was determined by:
Each plate included fourteen control wells of DMSO only treatment (Minimum Inhibition) as well as fourteen control wells for maximum inhibition (Background). The average of the ratio values for each control type was calculated and used to determine the percent inhibition for each test well in the plate. Reference compound was serially diluted two-fold in DMSO for a total of nine test concentrations, beginning at 40 μM. Percent inhibition was calculated (below).
Non-linear regression curves were generated to calculate the IC50 and dose-response relationship using triplicate wells per concentration of compound.

Row | Structure (SMILES) | IC50 [nM]
25 | C[C@H]1CC(NC(=O)c2cc3c(cc2Cl)NC(=O)C3)CCN1C(=O)[C@H]1CC[C@H](N)CC1 (stereo partly drawn) [compound 640, N-((2S)-1-((1r,4S)-4-aminocyclohexane-1-carbonyl)-2-methylpiperidin-4-yl)-6-chloro-2-oxoindoline-5-carboxamide] | ≥ 10000

Same assay, conditions: read-out: SMYD3 Cell IC50

Row | Structure (SMILES) | IC50 [nM]
26 | CC(NC(=O)c1cc2c(cc1Cl)NC(=O)C2)C1CCN(C(=O)[C@H](C)N)CC1 (stereo partly drawn) [Cpd. No. 490, N-(1-(1-((S)-2-aminopropanoyl)piperidin-4-yl)ethyl)-6-chloro-2-oxoindoline-5-carboxamide] | > 40000

Reference: patent US10266526B2, “Substituted 1,2,3-triazoles as SMYD inhibitors for treating cancer” (EPIZYME, INC., priority 2014, dated 2019)
